Residues, ends and D or L forms follow the SMILES beside them. No end group written: not given here. *: point of attachment. Cbz = O=C(OCc1ccccc1)*
What was measured:
[1] = tested on: cortical neuronal cultures; experiment: Sublethal stretch injury with or without NMDA, cell death in cortical cultures; type: cell-based
Method: […]. In brief, cerebral cortices from 10 to 12 embryos were incubated for 10 min in 0.05% trypsin-EDTA, dissociated by trituration, and plated on flexible membranes coated with poly-L-ornithine in 6 well plates (Flexcell International Corporation, Hillsborough, N.C.) at a density of 3.25×10^6 cells per well. Plating medium consisted of DMEM supplemented with 10% heat-inactivated horse serum (Gibco) and (in mM) 2 glutamine, 25 glucose, and 26 bicarbonate. The cultures were maintained at 37° C. in a humidified 5% CO2 atmosphere. After 3 days in vitro, growth of non-neuronal cells was halted by a 48 h exposure to 10 μM FDU-solution (5 μM uridine, 5 μM (+)-5-fluor-2′-deoxyuridine). This produces cultures in which >85% of the cells are neurons, based on immunohistochemical staining for glial fibrillary associated protein (exclusive to astrocytes), and for the NMDAR1 subunit (not shown). The cultures were used for experiments after 12-14 days in vitro.
The cultures, grown on silastic membranes as above, were placed in the Flexercell® FX-3000™ Strain Unit (Flexcell Int., Inc.), a computer-driven instrument that uses a vacuum pulse to deform the culture substrate. In all experiments, the cortical cultures were stretched to 130% of their original length for 1 s, inducing a sublethal injury as recently characterized by us (Arundine et al., 2003). The stretched neurons maintained cell membrane integrity, viability, and electrophysiological function.
Cell death was determined by serial quantitative measurements of propidium iodide (PI) fluorescence using a multiwell plate fluorescence scanner (Cytofluor II, PerSeptive Biosytems, Framingham, Mass., USA) as described previously (Sattler et al., 1997; Sattler et al., 1998). In brief, the culture medium in each tissue culture well was replaced with control solution containing 50 μg/ml PI, and a baseline fluorescence reading was taken. Sequential readings were then taken at appropriate intervals over the 20 h observation period. The fraction of dead cells in each culture at a given time was calculated as: Fraction dead=(Ft−Fo)/FNMDA Where Ft=PI fluorescence at time t, F0=initial PI fluorescence at time zero and FNMDA=background subtracted PI fluorescence of identical cultures from the same dissection and plating, 20-24 h after a 60 min exposure to 1 mM NMDA at 37° C. Based on manual observations at the time of validation of this technique, this NMDA exposure routinely produced near complete neuronal death in each culture but had no effect on surrounding glia (also see (Bruno et al., 1994; David et al., 1996; Sattler et al., 1997)). Adding Triton X-100 (0.1%) to cultures treated in this manner produced an additional 10-15% increase in PI fluorescence due to permeabilization of non-neuronal cell membranes, consistent with a 10-15% glial component in the cultures.
All experiments were performed at 37° C. Unless otherwise indicated, all solutions contained nimodipine (2 μM) and CNQX (10 μM) to restrict the actions of applied NMDA to NMDARs by preventing the secondary activation of other pathways (Sattler et al., 1998). In general, the cultures were washed ×2 with control solution and immediately stretched to 130% of their original length for 1 s. After the stretch, they were washed ×1 with control solution alone or challenged with an additional treatment (e.g., NMDA) and placed at 37° C. for 1 h. They were then washed ×1 with control solution and then with control solution containing 50 μg/ml PI to obtain a baseline reading. In pilot studies, baseline readings obtained at this stage were similar to those obtained by staining the cells with PI prior to stretch. As the stretch causes splashing of the bath solution, staining with PI after stretch reduced biohazard potential and artifacts associated with PI outside the culture well. Unstretched controls were manipulated identically to stretched cultures.

[2] = tested on: cortical neuronal cultures; experiment: DNA fragmentation assays (TUNEL, DNA gel electrophoresis); type: cell-based, mouse; settings: 20 h post-insult; 200 μM MnTBAP or 100 μM L-NAME
Description: DNA fragmentation was examined using the terminal deoxynucleotidyl transferase-mediated end nick labeling (TUNEL) method (Gavrieli et al., 1992; Didenko and Hornsby, 1996; Didenko et al., 1998) and by DNA agarose gel electrophoresis (Hill et al., 2000).
TUNEL Assay: Nuclear DNA strand breaks were detected by enzymatically labeling free 3′-OH termini with modified nucleotides provided in the Apoptag kit (Intergen) using the manufacturer's instructions. Visualization of TUNEL-stained nuclei was achieved using an anti-digoxigenin antibody conjugated to a fluorescein or peroxidase reporter molecule (ApopTag Peroxidase Kits S7110 and S7100, respectively, Intergen). In fluorescence experiments, nuclei were counterstained using 5 ng/ml Hoechst 33258 (1:5000, Transduction Labs), and visualized using 465-495 nm excitation and 515-555 nm emission for fluorescein and 340 nm excitation and 510-40 nm emission for Hoechst. The number of TUNEL positive cells was expressed as a fraction of the total cell number in the field. In each culture, 4-8 random fields were quantified. Approximately 100-200 cells were counted per culture, and at least 3 experiments were performed for each set of counts.
DNA Gel Electrophoresis: DNA laddering was evaluated as described elsewhere (Hill et al., 2000). In brief, all tissue was collected from each culture well and pelleted by centrifugation (1000 rpm; 1 min). The cells were digested for 2 h at 56° C. in buffer containing (in mM) 10 Tris pH 8.0, 2 EDTA pH8, 400 NaCl, 0.5% SDS, 1 mg/ml proteinase K. Digest solution was subjected to phenol/chloroform extraction and total DNA was precipitated from the aqueous layer with an equal volume of 100% ethanol. The DNA pellet was dried, dissolved in 50 μl ddH20 and kept overnight at 4° C. 10 μg DNA was prepared on a 2% agarose gel. Gels were stained with ethidium bromide and photographed.

[3] = tested on: cultured cortical neurons; experiment: NMDA excitotoxicity in cultured cortical neurons (propidium iodide fluorescence); type: cell-based, mouse
[4] = Physiological variables in post-treatment MCAO study; type: in vivo, Sprague-Dawley rats
Method: Next, I examined whether treatment with Tat-NR2B9c could attenuate ischemic neuronal damage in-vivo when given after stroke onset. […] Infarction volume and neurological outcome measurements were performed at times identical to the pre-treatment study. Body temperature, blood pressure and blood gases were monitored throughout the 24 h experiment and maintained equivalent between groups (Table 2).

[5] = tested on: transient unilateral middle cerebral artery occlusion; settings: MCAO 90 min
[6] = Physiological variables in pre-treatment MCAO study; type: in vivo, Sprague-Dawley rats
Method: Next, I examined whether pretreatment with Tat-peptides would reduce stroke damage. Experiments were carried out in adult male Sprague-Dawley rats subjected to transient middle cerebral artery occlusion (MCAO) for 90 minutes by the intraluminal suture method (36,37). Animals were fasted overnight and injected with atropine sulfate (0.5 mg/kg IP). After 10 minutes anesthesia was induced with 3.5% halothane in a mixture of nitrous oxide and oxygen (Vol. 2:1) and maintained with 0.8% halothane. Rats were orally intubated, mechanically ventilated, and paralyzed with pancuronium bromide (0.6 mg/kg IV). Body temperature was maintained at 36.5-37.5° C. with a heating lamp. Polyethylene catheters in the femoral artery and vein were used to continuously record blood pressure and to sample blood for gas and pH measurements. […] This produces an extensive infarction encompassing the cerebral cortex and basal ganglia. […] Physiological parameters (body temperature, blood pressure, blood gases) were monitored and maintained throughout the experiment (Table 1). All experimental manipulations and analyses of data were performed by individuals blinded to the treatment groups. The extent of cerebral infarction was measured 24 h after MCAO onset (FIG. 7C inset). The postural reflex test (38), and the forelimb placing test (39) were used to grade neurological function on a scale of 0 to 12 (normal=0; worst=12) during MCAO (at 50 minutes) and 24 h thereafter.

CC(C)[C@H](NC(=O)OCc1ccccc1)C(=O)N[C@H](C=O)Cc1ccccc1 [Calpain inhibitor III, z-val-phe-CHO] (Cbz-Val-Phe-aldehyde)
heightened vulnerability of stretched neurons to NMDA ([1]; 10 μM): not reduced
toxic effects in control or stretched cultures ([1]; 10 μM): no toxic effects
protection of cells challenged with 30 μM or 1 mM NMDA ([1]; 10 μM, whether or not stretched): slightly protected

COC(=O)[C@@H](N)CCCNC(=N)N[N+](=O)[O-] [L-NAME, N^G-nitro-L-arginine methyl ester]
DNA laddering after stretch followed by NMDA [2]: virtually abolished
TUNEL staining after stretch followed by NMDA [2]: virtually abolished
protection against NMDA toxicity ([3]; cultured cortical neurons): protected
enhanced vulnerability of stretched neurons to NMDA ([1]; 100 μM, 30 min preincubation): completely eliminated the enhanced vulnerability
toxicity of 30 μM NMDA in unstretched neurons ([1]; 100 μM, 30 min preincubation): reduced the toxicity

YGRKKRRQRRRKLSSIEADA [Tat-NR2B-AA, reference compound]
Body Temperature ([4]; After MCAo (15 min)): 36.9 ± 0.23 °C
MABP ([4]; After MCAo (15 min)): 116 ± 4 mmHg
Body Temperature ([4]; After MCAo (24 hr)): 36.7 ± 0.27 °C
Body weight ([4]; After MCAo (24 hr)): 276 ± 6 g
Blood gases PCO2 ([4]; Before MCAo(15 min)): 37.9 ± 1.1 mmHg
Blood gases PH ([4]; Before MCAo(15 min)): 7.45 ± 0.01
Blood gases PO2 ([4]; Before MCAo(15 min)): 113 ± 4 mmHg
Body Temperature ([4]; Before MCAo(15 min)): 36.7 ± 0.07 °C
MABP ([4]; Before MCAo(15 min)): 103 ± 6 mmHg
Body weight ([4]; Before anesthesia): 301 ± 5 g
Blood gases PCO2 ([4]; During MCAo (15 min)): 48.0 ± 1.2 mmHg
Blood gases PH ([4]; During MCAo (15 min)): 7.46 ± 0.01
Blood gases PO2 ([4]; During MCAo (15 min)): 108 ± 2 mmHg
Body Temperature ([4]; During MCAo (15 min)): 36.7 ± 0.11 °C
MABP ([4]; During MCAo (15 min)): 121 ± 5 mmHg
Body Temperature ([4]; During MCAo (60 min)): 37.0 ± 0.31 °C
MABP ([4]; During MCAo (60 min)): 149 ± 4 mmHg
Body Temperature ([4]; During MCAo (65 min)): 37.0 ± 0.29 °C
MABP ([4]; During MCAo (65 min)): 136 ± 5 mmHg
Mean (SE) core temperature during surgery [5]: 37.2 (∀0.2)
Mean (SE) core temperature subsequent to surgery [5]: 37.3 (∀0.1)
Mean (SE) systolic blood pressure during surgery [5]: 109 (∀5.9)
Mean (SE) systolic blood pressure prior to surgery [5]: 113 (∀8.8)
Mean (SE) systolic blood pressure subsequent to surgery [5]: 115 (∀5.9)
Mean (SE) core temperature prior to surgery ([5]; drug i.v. 3 hours after onset of ischemia): 36.9 (∀0.1)
toxic effects in control or stretched cultures ([1]; 50 nM): no toxic effects
Body Temperature ([6]; After MCAo (15 min)): 36.8 ± 0.08 °C
Body Temperature ([6]; After MCAo (24 hr)): 37.0 ± 0.25 °C
Body weight ([6]; After MCAo (24 hr)): 244 ± 6 g
Body Temperature ([6]; Before MCAo(15 min)): 36.6 ± 0.15 °C
MABP ([6]; Before MCAo(15 min)): 115 ± 5 mmHg
Blood gases PCO2 ([6]; Before MCAo(30 min)): 39.1 ± 1.4 mmHg
Blood gases PH ([6]; Before MCAo(30 min)): 7.44 ± 0.02
Blood gases PO2 ([6]; Before MCAo(30 min)): 110 ± 7 mmHg
Body Temperature ([6]; Before MCAo(30 min)): 36.5 ± 0.12 °C
MABP ([6]; Before MCAo(30 min)): 110 ± 4 mmHg
Body Temperature ([6]; Before MCAo(45 min)): 36.7 ± 0.17 °C
MABP ([6]; Before MCAo(45 min)): 115 ± 5 mmHg
Body weight ([6]; Before anesthesia): 273 ± 7 g
Blood gases PCO2 ([6]; During MCAo (5 min)): 39.6 ± 0.5 mmHg
Blood gases PH ([6]; During MCAo (5 min)): 7.44 ± 0.02
Blood gases PO2 ([6]; During MCAo (5 min)): 109 ± 4 mmHg
Body Temperature ([6]; During MCAo (5 min)): 36.6 ± 0.17 °C
MABP ([6]; During MCAo (5 min)): 135 ± 7 mmHg
Body Temperature ([6]; During MCAo (15 min)): 36.7 ± 0.15 °C
MABP ([6]; During MCAo (15 min)): 111 ± 6 mmHg

B1: pTat-GK: Tat fusion protein containing residues 534-724 of PSD-95, guanylate-kinase homology domain; control (protein)
chain: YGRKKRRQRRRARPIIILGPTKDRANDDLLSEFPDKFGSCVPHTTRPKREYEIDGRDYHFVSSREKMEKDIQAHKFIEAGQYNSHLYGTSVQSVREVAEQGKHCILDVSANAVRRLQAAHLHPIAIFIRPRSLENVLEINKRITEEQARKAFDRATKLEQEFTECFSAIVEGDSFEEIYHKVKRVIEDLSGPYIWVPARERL
modifications: left off: small tags and cut ends
notes: Tat fusion protein containing residues 534-724 of PSD-95, guanylate-kinase homology domain; control
NMDA-evoked cell death, pre-treatment ([3]; 50 nM for 1 h, then NMDA 0-100 μM 1 h, 20 h observation): had no effect
enhanced cell mortality in stretched neurons by NMDA challenge, post-treatment ([1]; 50 nM applied after terminating the 1 h NMDA challenge): ineffective

Reference: US8071548B2, “Method of reducing injury to mammalian cells” (Nono, Inc., priority 2002, dated 2011)
